# Reference: ChEMBL document CHEMBL4507295 (2021)
# Experiments:
# [1] = target: 5-hydroxytryptamine receptor 1E (Homo sapiens) (UniProt P28566); settings: Compound concentration 10.0 uM
# [2] = species on record: Rattus norvegicus; assay: Inhibition of Glycine, Strychnine-Sensitive at 10 µM in the Eurofins-Panlabs radioligand binding assay (Eurofins_assay_239000); settings: Compound concentration 10.0 uM
# [3] = target: Melanocortin receptor 5 (Homo sapiens) (UniProt P33032); assay: Inhibition of Melanocortin MC5 at 10 µM in the Eurofins-Panlabs radioligand binding assay (Eurofins_assay_251400); design: ligand concentration 0.035 nM; settings: Compound concentration 10.0 uM
# [4] = target: Caspase-3 (Homo sapiens) (UniProt P42574); assay: Peptidase, CASP3 (Caspase 3) Eurofins-Panlabs enzyme assay; settings: Compound concentration 10.0 uM
# [5] = target: Tyrosine 3-monooxygenase (Homo sapiens) (UniProt P07101); assay: Tyrosine Hydroxylase Eurofins-Panlabs enzyme assay; design: substrate with concentration; settings: Rattus norvegicus; Compound concentration 10.0 uM
# [6] = target: Polyunsaturated fatty acid lipoxygenase ALOX12 (Homo sapiens) (UniProt P18054); assay: Lipoxygenase 12-LO Eurofins-Panlabs enzyme assay; design: substrate with concentration; settings: Compound concentration 10.0 uM
# [7] = target: Tyrosine-protein phosphatase non-receptor type 1 (Homo sapiens) (UniProt P18031); assay: Protein Tyrosine Phosphatase, PTPN1 (PTP1B) Eurofins-Panlabs enzyme assay; design: substrate with concentration; settings: Compound concentration 10.0 uM
# [8] = target: T1, Tyrosine-protein phosphatase non-receptor type 2 (Homo sapiens) (UniProt P17706); assay: (§1) Protein Tyrosine Phosphatase, PTPN2 (TCPTP) Eurofins-Panlabs enzyme assay; design: substrate with concentration DiFMUP, incubation time 60 min, incubation temperature 37 °C
# T1 sequence (whole entry): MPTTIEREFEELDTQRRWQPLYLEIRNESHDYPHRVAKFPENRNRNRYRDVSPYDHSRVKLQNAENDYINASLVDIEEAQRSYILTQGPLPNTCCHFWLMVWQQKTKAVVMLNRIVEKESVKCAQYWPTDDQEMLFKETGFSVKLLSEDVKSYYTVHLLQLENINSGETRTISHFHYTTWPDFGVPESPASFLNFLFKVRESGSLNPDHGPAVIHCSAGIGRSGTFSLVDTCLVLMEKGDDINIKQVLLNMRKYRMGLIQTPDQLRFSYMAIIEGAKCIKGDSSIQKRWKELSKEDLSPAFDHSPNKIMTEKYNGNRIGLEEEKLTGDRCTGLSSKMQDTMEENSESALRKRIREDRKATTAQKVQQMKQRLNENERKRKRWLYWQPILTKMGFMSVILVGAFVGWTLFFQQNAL
# [9] = target: Tyrosine-protein phosphatase non-receptor type 2 (Homo sapiens, UniProt P17706); assay: as §1; design: substrate with concentration DiFMUP, incubation time 60 min, incubation temperature 37 °C
# [10] = target: Bombesin receptor (Rattus norvegicus) (UniProt P52500+P24053+Q8K418); assay: Bombesin, Non-Selective Eurofins-Panlabs radioligand binding assay; type: protein assay; settings: Compound concentration 10.0 uM
# [11] = target: Melatonin receptor (Gallus gallus) (UniProt P49288+P51050+P49285); assay: Melatonin MT, Non-Selective Eurofins-Panlabs radioligand binding assay; type: protein assay; settings: Compound concentration 10.0 uM
# [12] = target: Prostaglandin E2 receptor EP1 subtype (Homo sapiens) (UniProt P34995); assay: Prostanoid EP1 Eurofins-Panlabs radioligand binding assay; settings: Compound concentration 10.0 uM
# [13] = target: Prostaglandin F2-alpha receptor (Homo sapiens) (UniProt P43088); assay: Prostanoid FP Eurofins-Panlabs radioligand binding assay; design: ligand concentration 0.95 nM; settings: Compound concentration 10.0 uM
# [14] = target: Prostacyclin receptor (Homo sapiens) (UniProt P43119); assay: Prostanoid IP Eurofins-Panlabs radioligand binding assay; design: ligand concentration 5 nM; settings: Compound concentration 10.0 uM
# [15] = target: Mu-type opioid receptor (Homo sapiens) (UniProt P35372); settings: Compound concentration 10.0 uM
# Mu-type opioid receptor (Homo sapiens), sequence (P35372 whole entry): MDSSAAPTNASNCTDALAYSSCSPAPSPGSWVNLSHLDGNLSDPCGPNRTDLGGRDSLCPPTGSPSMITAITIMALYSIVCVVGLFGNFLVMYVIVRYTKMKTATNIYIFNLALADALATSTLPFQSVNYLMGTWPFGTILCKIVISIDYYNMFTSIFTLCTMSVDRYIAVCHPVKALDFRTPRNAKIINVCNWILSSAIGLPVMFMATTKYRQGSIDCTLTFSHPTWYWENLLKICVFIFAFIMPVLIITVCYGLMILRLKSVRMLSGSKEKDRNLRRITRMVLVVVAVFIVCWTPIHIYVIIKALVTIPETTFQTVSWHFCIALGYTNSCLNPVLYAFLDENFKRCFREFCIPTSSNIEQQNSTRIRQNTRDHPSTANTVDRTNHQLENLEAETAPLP
# Prostaglandin F2-alpha receptor (Homo sapiens), sequence (P43088 whole entry): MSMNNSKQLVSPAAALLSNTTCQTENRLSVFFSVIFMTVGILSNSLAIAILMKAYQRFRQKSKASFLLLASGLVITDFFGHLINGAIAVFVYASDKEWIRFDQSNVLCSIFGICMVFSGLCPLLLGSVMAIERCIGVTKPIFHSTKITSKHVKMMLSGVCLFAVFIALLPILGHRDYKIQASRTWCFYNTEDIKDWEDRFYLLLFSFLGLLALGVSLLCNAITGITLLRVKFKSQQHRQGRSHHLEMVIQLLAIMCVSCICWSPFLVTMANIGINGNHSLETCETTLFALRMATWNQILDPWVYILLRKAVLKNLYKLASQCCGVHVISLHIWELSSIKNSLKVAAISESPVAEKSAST
# Caspase-3 (Homo sapiens), sequence (P42574 29-175 limits assumed): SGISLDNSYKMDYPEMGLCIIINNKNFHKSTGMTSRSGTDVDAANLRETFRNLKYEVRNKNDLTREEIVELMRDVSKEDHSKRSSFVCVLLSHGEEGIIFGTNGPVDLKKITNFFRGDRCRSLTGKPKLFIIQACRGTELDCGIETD
# Caspase-3 (Homo sapiens), sequence (P42574 176-277 limits assumed): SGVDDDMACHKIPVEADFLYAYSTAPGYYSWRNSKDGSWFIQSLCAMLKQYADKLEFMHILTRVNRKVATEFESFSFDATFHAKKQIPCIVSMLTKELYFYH
# Polyunsaturated fatty acid lipoxygenase ALOX12 (Homo sapiens), sequence (P18054 whole entry): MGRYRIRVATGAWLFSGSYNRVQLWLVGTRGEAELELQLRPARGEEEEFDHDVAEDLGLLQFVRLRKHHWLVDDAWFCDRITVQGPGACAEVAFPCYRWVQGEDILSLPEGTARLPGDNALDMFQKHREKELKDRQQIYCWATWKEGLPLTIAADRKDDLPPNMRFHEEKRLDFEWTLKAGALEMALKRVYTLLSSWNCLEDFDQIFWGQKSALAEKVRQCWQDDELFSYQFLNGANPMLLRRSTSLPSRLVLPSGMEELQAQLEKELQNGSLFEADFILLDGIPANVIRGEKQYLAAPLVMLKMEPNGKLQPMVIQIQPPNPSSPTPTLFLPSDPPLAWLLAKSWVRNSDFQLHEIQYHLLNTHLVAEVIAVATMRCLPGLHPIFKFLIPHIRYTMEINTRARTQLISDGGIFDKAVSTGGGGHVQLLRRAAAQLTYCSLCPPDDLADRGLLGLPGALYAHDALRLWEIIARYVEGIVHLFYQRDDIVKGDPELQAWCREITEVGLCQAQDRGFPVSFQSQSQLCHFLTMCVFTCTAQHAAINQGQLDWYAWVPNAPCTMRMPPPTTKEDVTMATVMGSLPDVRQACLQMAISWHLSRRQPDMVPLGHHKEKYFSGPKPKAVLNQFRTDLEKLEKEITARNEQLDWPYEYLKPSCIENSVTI
# Tyrosine 3-monooxygenase (Homo sapiens), sequence (P07101 whole entry): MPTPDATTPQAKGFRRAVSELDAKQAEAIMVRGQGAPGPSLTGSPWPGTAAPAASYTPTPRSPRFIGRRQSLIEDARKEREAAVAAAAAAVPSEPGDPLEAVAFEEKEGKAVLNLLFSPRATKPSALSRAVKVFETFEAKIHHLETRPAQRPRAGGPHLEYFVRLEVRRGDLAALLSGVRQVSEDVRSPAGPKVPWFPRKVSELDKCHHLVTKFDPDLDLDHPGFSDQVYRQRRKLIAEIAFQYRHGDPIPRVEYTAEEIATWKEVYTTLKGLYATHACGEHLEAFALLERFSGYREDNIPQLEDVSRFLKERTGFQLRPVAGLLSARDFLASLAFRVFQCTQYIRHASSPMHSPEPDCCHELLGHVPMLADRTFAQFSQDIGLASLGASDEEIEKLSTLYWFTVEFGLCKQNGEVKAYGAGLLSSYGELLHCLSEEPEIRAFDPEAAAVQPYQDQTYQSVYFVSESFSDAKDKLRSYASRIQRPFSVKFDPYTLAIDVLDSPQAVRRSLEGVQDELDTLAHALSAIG
# 5-hydroxytryptamine receptor 1E (Homo sapiens), sequence (P28566 whole entry): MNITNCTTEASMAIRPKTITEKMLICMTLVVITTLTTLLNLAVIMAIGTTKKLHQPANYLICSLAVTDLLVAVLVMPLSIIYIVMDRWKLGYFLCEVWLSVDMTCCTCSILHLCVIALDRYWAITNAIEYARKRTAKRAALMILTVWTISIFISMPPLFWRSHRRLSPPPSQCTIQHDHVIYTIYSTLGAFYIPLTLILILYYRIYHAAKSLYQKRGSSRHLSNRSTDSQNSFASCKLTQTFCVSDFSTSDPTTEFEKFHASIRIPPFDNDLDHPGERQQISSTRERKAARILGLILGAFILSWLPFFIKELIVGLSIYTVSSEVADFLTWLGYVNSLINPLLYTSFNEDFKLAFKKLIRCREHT
# Prostacyclin receptor (Homo sapiens), sequence (P43119 whole entry): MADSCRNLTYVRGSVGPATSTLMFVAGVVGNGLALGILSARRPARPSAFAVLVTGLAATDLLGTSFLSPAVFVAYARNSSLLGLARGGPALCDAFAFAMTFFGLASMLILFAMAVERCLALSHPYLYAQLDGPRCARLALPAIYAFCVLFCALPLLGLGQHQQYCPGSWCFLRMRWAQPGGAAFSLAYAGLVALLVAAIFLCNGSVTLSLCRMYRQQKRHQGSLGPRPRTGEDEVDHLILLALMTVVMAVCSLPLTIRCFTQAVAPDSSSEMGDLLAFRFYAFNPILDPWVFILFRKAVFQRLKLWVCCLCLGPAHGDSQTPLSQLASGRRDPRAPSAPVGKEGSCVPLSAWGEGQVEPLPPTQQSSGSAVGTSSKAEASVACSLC
# Tyrosine-protein phosphatase non-receptor type 1 (Homo sapiens), sequence (P18031 whole entry): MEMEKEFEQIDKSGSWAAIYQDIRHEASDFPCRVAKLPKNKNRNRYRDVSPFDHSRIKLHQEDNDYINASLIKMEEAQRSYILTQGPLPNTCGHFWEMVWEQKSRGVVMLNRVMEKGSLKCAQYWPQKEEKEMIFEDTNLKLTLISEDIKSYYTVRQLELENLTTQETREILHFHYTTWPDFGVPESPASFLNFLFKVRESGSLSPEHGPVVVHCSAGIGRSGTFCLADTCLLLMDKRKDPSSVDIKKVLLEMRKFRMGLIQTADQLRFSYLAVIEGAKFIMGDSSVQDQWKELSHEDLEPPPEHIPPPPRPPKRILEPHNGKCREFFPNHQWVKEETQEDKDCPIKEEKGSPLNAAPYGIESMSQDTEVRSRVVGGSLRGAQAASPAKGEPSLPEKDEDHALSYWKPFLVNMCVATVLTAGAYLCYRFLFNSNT
# Melanocortin receptor 5 (Homo sapiens), sequence (P33032 whole entry): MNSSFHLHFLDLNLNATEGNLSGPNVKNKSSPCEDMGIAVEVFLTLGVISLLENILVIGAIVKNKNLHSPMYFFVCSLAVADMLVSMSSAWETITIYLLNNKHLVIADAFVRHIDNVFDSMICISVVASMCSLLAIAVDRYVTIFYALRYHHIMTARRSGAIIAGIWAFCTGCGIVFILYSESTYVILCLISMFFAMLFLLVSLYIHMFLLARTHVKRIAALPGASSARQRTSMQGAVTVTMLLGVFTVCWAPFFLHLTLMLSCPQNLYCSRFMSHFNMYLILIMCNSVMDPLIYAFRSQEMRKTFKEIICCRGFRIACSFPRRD
# Bombesin receptor (Rattus norvegicus), sequence (P24053 whole entry, looked up): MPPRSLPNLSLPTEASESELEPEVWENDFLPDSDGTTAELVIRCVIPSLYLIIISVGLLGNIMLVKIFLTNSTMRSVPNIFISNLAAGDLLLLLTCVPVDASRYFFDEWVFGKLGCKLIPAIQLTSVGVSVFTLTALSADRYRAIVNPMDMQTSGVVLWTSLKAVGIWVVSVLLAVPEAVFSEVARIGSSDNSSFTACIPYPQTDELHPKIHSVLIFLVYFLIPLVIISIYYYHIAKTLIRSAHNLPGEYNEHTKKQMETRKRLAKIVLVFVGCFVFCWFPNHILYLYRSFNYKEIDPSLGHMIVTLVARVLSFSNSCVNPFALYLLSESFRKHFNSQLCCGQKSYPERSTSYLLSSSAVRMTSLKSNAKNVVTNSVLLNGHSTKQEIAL
# Bombesin receptor (Rattus norvegicus), sequence (P52500 whole entry, looked up): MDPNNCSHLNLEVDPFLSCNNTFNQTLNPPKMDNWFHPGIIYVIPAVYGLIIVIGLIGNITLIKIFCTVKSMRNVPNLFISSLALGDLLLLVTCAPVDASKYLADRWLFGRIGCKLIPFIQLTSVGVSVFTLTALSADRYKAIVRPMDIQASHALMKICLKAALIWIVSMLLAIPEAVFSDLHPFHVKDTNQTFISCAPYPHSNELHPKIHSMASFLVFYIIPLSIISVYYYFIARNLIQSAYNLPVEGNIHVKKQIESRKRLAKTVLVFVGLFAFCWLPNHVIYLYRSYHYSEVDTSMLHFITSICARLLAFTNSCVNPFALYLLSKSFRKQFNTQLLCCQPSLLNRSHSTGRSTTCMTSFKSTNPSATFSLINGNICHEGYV
# Bombesin receptor (Rattus norvegicus), sequence (Q8K418 whole entry, looked up): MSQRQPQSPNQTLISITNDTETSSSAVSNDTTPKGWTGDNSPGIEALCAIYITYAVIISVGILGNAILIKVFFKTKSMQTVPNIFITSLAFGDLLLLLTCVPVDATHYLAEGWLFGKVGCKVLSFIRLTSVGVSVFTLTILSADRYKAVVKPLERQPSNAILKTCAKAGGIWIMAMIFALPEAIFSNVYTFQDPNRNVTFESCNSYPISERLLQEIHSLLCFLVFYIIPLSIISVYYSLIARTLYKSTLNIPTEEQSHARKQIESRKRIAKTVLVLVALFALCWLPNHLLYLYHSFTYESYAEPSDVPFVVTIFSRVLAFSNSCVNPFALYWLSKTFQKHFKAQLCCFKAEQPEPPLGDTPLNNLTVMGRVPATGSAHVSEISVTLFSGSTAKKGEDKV
SMILES,inhibition [1],inhibition [2],inhibition [3],inhibition [4],inhibition [5],inhibition [6],inhibition [7],inhibition ([8]; Compound concentration 0.01 uM),inhibition ([8]; Compound concentration 0.1 uM),inhibition ([8]; Compound concentration 1.0 uM),inhibition ([8]; Compound concentration 10.0 uM),IC50 [9],inhibition [10],inhibition [11],inhibition [12],inhibition [13],inhibition [14],inhibition [15]
N#CC1(c2ccccn2)CCN(Cc2cc(C(=O)N3CCCC3)c(=O)n3ccccc23)CC1,-3.26%,–,–,–,–,–,–,–,–,–,–,–,–,–,–,–,–,–
N#CC1(c2ccccn2)CCN(Cc2cc(C(=O)O)c(=O)n3ccccc23)CC1 [MSD-M1PAM],–,33%,1%,6%,-2%,13%,34%,-4%,-5%,4%,50%,10 µM,6%,-6%,14%,12%,22%,0%
